Paper PMC7366380, “Discovery of a Potent and Selective Covalent Inhibitor and Activity-Based Probe for the Deubiquitylating Enzyme UCHL1, with Antifibrotic Activity” (Journal of the American Chemical Society, 2020)

Legend:
[1] = molecular target: T1, BAP1 (Homo sapiens, UniProt Q92560); test: biochemical
T1 sequence (Q92560 1-729): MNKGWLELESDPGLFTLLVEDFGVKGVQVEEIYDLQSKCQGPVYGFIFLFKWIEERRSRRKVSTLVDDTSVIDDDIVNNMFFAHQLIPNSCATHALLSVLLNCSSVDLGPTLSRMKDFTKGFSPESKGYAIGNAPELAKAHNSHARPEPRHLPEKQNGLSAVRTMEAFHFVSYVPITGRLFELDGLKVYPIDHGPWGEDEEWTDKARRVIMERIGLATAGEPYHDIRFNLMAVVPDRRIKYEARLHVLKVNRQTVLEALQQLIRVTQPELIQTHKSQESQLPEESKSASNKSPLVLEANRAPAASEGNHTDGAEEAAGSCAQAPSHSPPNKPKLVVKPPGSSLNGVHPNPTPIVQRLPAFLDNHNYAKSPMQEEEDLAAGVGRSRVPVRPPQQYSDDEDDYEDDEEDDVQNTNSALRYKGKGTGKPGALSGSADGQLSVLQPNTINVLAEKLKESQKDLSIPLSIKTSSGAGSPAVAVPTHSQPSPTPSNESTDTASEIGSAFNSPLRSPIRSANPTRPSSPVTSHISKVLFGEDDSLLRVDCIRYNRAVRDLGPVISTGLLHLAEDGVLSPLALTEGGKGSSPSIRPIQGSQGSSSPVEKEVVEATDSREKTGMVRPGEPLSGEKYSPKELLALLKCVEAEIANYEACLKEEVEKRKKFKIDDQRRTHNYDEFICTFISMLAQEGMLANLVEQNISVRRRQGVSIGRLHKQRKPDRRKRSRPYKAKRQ

[2] = molecular target: T2, USP22 (Homo sapiens, UniProt Q9UPT9); test: Biochemical DUB selectivity profiling assay: USP22; conditions: Ub-Rho110 400 nM, buffer B; read-out: Biochemical IC50 range, USP22
T2 sequence (Q9UPT9 1-525): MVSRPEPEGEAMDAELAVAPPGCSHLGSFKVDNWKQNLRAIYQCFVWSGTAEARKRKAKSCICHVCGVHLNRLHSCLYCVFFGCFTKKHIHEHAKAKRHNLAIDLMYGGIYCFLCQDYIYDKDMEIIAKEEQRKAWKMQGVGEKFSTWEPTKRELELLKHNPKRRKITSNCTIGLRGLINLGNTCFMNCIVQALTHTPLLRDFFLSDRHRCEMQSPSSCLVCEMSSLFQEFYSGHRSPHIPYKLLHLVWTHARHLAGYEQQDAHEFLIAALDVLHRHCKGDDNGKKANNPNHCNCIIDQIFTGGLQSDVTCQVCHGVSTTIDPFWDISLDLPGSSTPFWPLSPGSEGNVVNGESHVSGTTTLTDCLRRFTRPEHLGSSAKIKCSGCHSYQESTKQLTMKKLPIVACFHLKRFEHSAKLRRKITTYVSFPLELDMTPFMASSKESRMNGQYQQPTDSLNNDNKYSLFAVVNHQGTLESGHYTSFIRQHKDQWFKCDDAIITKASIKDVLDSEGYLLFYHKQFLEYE
T2 sequence (Q14CW9 1-347 partner): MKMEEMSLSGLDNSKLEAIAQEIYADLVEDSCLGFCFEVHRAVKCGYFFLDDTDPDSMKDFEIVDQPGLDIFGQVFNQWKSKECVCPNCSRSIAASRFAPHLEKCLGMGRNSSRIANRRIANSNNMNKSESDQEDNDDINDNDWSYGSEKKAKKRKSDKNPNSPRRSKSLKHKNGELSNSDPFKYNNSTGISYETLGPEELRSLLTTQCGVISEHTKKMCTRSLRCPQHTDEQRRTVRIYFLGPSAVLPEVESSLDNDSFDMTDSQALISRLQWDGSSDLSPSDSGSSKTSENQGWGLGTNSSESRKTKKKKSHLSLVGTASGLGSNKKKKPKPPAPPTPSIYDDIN
T2 sequence (Q9NPA8 1-101 partner): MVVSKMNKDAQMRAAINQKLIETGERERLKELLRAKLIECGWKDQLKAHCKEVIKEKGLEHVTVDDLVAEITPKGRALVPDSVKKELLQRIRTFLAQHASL
Experimental: DUB Assay Substrate Substrate
Buffer Concentration (nM) […]
Sepharose® 4B resin (GE Healthcare).
10 kDa molecular weight cut-off (MWCO)).
Fractions containing protein
Protein concentration was […]
reaction volume of 21 μL. […]
compound (final concentration 5 nM).
IC50 values were determined
Biochemical DUB selectivity profiling assays […]
in 40 µL total reaction volume.

SMILES	IC50 [1]	IC50 [2]
CC(=O)O/N=C1\C(=O)N(Cc2cc(Cl)ccc2Cl)c2ccc(Cl)cc21 [LDN-57444, reference compound]	> 10 µM	> 10 µM
N#CN1CCC[C@@H]1C(=O)N1CCc2c(-c3c[nH]c4ncccc34)cccc21 [Compound 3]	> 10 µM	> 10 µM
N#CN1CCC[C@H]1C(=O)N1CCc2c(-c3c[nH]c4ncccc34)cccc21 [Compound 1]	1 to 10 µM	> 10 µM
C#Cc1cnc2[nH]cc(-c3cccc4c3CCN4C(=O)[C@@H]3CCCN3C#N)c2c1 [Compound 2]		> 10 µM
